In test [1] the test system is panel of 60 human tumor cell lines. Further details: method as in PMID 19549304. To be noted: same cell line panel; cited from earlier work.
The subject of another test is BEAS-2B cells. Put plainly: MTT cell viability assay, BEAS-2B (non-tumorigenic). Type of test: cell-based. To be noted: Homo sapiens, 48 h, nonmalignant bronchial epithelium. Here is the method:
(§1) The cell lines were obtained from the American Type Culture Collection (ATCC). Five tumor cell lines (MDA-MB-231, MCF-7, HCT116, HTB-54, and DU-145) and two non-tumorigenic cells (184B5 and BEAS-2B) were grown in RPMI 1640 medium (Gibco), and the HT-29 tumor cell line was grown in McCoy’s medium. Both mediums were supplemented with 10% fetal bovine serum (FBS; Gibco) and 1% antibiotics (10.00 units/mL penicillin and 10.00 μg/mL streptomycin; Gibco). Cells were preserved in tissue culture flasks at 37 °C and 5% CO2. The culture medium was replaced every three days.
(§2) The effect of each compound on cell viability was tested using the MTT assay. […] Selected compounds were then tested at seven different concentrations (0.5–100 μM) in MCF-7, HCT116, HT-29, HTB-54, 184B5 and BEAS-2B cells. Cells were seeded at 10^4 per well onto flat-bottomed 96-well culture plates. They were treated with either DMSO or increasing concentration of the corresponding compound for 48 h. Then, they were incubated with 20 μL of 3-(4,5-dimethylthiazol-2-yl)-2,5-diphenyltetrazolium bromide (MTT) (2 mg /mL stock; Aldrich) for 2,5 h and analyzed for their ability to generate a purple formazan dye. These formazan crystals were dissolved in 50 μL of DMSO. The absorbance was measured at a wavelength of 550 nm and the ratio of viable cells was calculated.
(§3) Results are expressed as cell viability % at 10 μM. Selectivity index were calculated as the ratio of the IC50 values determined for the non-malignant and the tumor cells in breast (IC50 (184B5)/IC50 (MCF-7)) and lung (IC50 (BEAS-2B)/IC50 (HTB-54)) cell lines. Data were obtained from at least three independent experiments performed in triplicates.
Background: Formazan colour is commonly taken as a measure of viable cells.

Test [2] relates to MCF-7 cells. Put plainly: MTT cell viability assay, MCF-7. To be noted: for IC50: Homo sapiens, MCF7, MTT, 48 h; for SI (breast): IC50 (184B5)/IC50 (MCF-7). It is filed as cell-based. Here is the method:
as §1, §2, §3

A further test concerns MDA-MB-231 cells. Put plainly: MTT cell viability assay, MDA-MB-231. It is filed as cell-based. To be noted: Homo sapiens, MDA-MB-231, 48 h, read-out: Cell growth % at 10 µM, MDA-MB-231. The procedure:
as §1, §2, §3

The next test concerns DU-145 cells. Put plainly: MTT cell viability assay, DU-145. To be noted: Homo sapiens, DU-145, 48 h, read-out: Cell growth % at 10 µM, DU-145. Type of test: cell-based. Here is the method:
as §1, §2, §3

The test system of test [3] is HT-29 cells. As to the kind of experiment: MTT cell viability assay, HT-29. It is filed as cell-based. To be noted: Homo sapiens; for viability at 10 µM: HT-29, 10 µM, 48 h, read-out: Cell growth % at 10 µM, HT-29; for IC50: HT-29, 48 h. Here is the method: as §1, §2, §3
In a further test the test system is 184B5 cells. Put plainly: MTT cell viability assay, 184B5 (non-tumorigenic). Type of test: cell-based. To be noted: Homo sapiens, 48 h, nonmalignant mammary gland. The procedure: as §1, §2, §3
A further test has as its system HCT116 cells. As to the kind of experiment: MTT cell viability assay, HCT116. Type of test: cell-based. To be noted: Homo sapiens, HCT-116, 48 h. The procedure:
as §1, §2, §3

Test [4] deals with HTB-54, DU-145, HT-29 and MDA-MB-231 cancer cell lines. Put plainly: cells. Type of test: cell-based. To be noted: against the panel of the four cancer cell lines. Here is the method: as §1, §2
As a first approach, all the compounds were tested in vitro against lung (HTB-54), prostatic (DU-145), colon (HT-29), and triple-negative breast (MDA-MB-231) cancer cell lines at two concentrations (50 and 10 µM) for 48 h. Then, the MTT colorimetric assay was used to evaluate cell proliferation after the treatment. The data are expressed as the percentage of cell growth ± SD in at least three independent experiments performed in quadruplicates (Table S1).

The target of test [5] is T1, AChE (Rattus norvegicus, UniProt P37136).
T1 construct: from tissue; host or cells: frontal cortex of male Wistar rats (crude homogenate)
T1 sequence (P37136 32-614): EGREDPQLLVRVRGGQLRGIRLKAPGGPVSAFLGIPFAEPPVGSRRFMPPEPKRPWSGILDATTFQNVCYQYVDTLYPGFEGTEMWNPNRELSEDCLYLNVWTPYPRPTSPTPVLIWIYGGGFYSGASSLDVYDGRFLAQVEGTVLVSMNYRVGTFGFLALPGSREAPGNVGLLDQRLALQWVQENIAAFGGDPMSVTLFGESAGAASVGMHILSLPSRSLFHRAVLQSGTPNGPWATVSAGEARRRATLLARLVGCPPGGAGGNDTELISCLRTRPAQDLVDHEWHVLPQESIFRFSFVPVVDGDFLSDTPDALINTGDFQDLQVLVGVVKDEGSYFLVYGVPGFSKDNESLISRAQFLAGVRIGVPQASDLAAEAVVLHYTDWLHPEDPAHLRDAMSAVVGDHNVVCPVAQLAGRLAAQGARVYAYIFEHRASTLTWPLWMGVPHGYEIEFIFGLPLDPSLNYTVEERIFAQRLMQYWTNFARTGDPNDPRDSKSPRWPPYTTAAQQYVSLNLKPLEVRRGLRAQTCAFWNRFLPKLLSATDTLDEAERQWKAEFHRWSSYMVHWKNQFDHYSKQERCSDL
As to the kind of experiment: AChE inhibition by Ellman's method (rat frontal cortex homogenate). Type of test: biochemical. To be noted: at 10^−6 M, Ellman's method. Here is the method:
Frontal cortex tissue obtained from male Wistar rats was homogenized in 39 volumes of 75 mM sodium phosphate buffer (pH 7.4). A mixture of 260 μL containing the compounds assessed, acetylthiocholine iodide and 5 μL tissue homogenate was incubated for 8 min. The reaction was then terminated by adding 50 μL 3% (w/v) sodium dodecyl sulphate followed by 50 μL 0.2% (w/v) 5,5′-dithio-bis(2-nitrobenzoic) acid to produce the yellow anion of 5-thio-2-nitro-benzoic-acid. The extent of the color production was measured spectrophotometrically at 405 nm using Multiskan Ex (Thermo Electron Corporation). […] Results are expressed as the mean ± SD and each experiment was repeated three times.
In general terms: Ellman's reagent forms a yellow product with free thiols.

Test [6] has as its system HTB-54 cells. Put plainly: MTT cell viability assay, HTB-54. Type of test: cell-based. To be noted: for viability at 10 µM / IC50: HTB-54, 48 h, MTT; for viability at 10 µM: read-out: Cell growth % at 10 µM, HTB-54; for SI (lung): IC50 (BEAS-2B)/IC50 (HTB-54). Here is the method: as §1, §2, §3
For test [7], the system named is HT-29 cells. To be noted: parent NSAIDs; cited from earlier work.
Test [8] relates to HTB-54 cells. The arrangement: method as in PMID 36257283. To be noted: parent NSAIDs; cited from earlier work.
The test system of test [9] is MCF-7 cells. The arrangement: method as in PMID 36257283. To be noted: parent NSAIDs; cited from earlier work.
Test [10] has as its system AChE. As to the kind of experiment: AChE inhibition quoted from the literature. To be noted: AChE IC50 ratio to 14a. Type of test: biochemical.
The subject of test [11] is AChE. The arrangement: method as in PMID 25312723. To be noted: cited from earlier work.

Like-named read-outs stand apart in the source and are kept apart here. Where only a bound is given, the exact number is not on record here.

The GI50 is the concentration giving 50% growth inhibition. The term IC50 denotes the midpoint of a concentration-inhibition curve. A word on the inhibition: it is the share of the control response that was lost under treatment. The low end stands for little suppression, the high end for strong suppression.

As for `COc1cc2ncnc(Nc3ccc(F)c(Cl)c3)c2cc1OCCCN1CCOCC1` [gefitinib], the GI50 in test [1] was 3.24 µM.
On to `C=CC[Se]C(=O)C(C)c1ccc(CC(C)C)cc1` (centres unmarked) [Compound 15a], for which the IC50 stood at 11.1 ± 2.6 µM in the test on BEAS-2B cells; 11.2 ± 0.2 µM in the test with MCF-7 cells [2]; 9.2 ± 0.7 µM with HT-29 cells [3]; 11.5 ± 1.4 µM in the test on 184B5 cells; 10.2 ± 0.1 µM with HCT116 cells; 23.5 ± 5.8 µM in the test on HTB-54 cells [6]. Also, the “SI (breast)” value in the test on MCF-7 cells [2] stood at 1.1. Also, the viability at 10 µM is 38 ± 5.4% in the test on MDA-MB-231 cells; 19.1 ± 7% in the test on DU-145 cells; 49 ± 7.2% in the test with HT-29 cells [3]; less than 55% in test [4]; 38 ± 7.1% in the test with HTB-54 cells [6]. The compound further showed an inhibition at 1 µM at AChE [5] of 19.3 ± 0.1%. The “SI (lung)” value with HTB-54 cells [6] came to 0.5.
Regarding `COc1ccc2c(c1)c(CC(=O)O)c(C)n2C(=O)c1ccc(Cl)cc1` [Indomethacin, 2-[1-(4-chlorobenzoyl)-5-methoxy-2-methylindol-3-yl] acetic acid], the IC50 in the test on HT-29 cells [7], with HTB-54 cells [8] and with MCF-7 cells [9] was greater than 100 µM in each case.
In the case of `C=CC[Se]C(=O)C(C)c1ccc2cc(OC)ccc2c1` [Compound 16a, Se-allyl (S)-2-(6-methoxynaphtalen-2-yl)propaneselenoate], the IC50 in the test with BEAS-2B cells came to 14.7 ± 8.7 µM; in the test on MCF-7 cells [2] it was 10.9 ± 1.3 µM; in the test with HT-29 cells [3] it was 9.4 ± 0.6 µM; with 184B5 cells, 11.1 ± 1.1 µM; in the test on HCT116 cells, 27.1 ± 2.7 µM; in the test with HTB-54 cells [6] it was 9.9 ± 0.3 µM. Besides, the “SI (breast)” value with MCF-7 cells [2] amounted to 1.0. Further, the viability at 10 µM is 33.8 ± 5.6% in the test with MDA-MB-231 cells; 18.8 ± 6.3% in the test with DU-145 cells; 49.9 ± 5.6% in the test with HT-29 cells [3]; less than 55% in test [4]; 30.9 ± 6.7% in the test on HTB-54 cells [6]. At AChE [5], this compound registered an inhibition at 1 µM of 20.3 ± 4.2%. In addition, the “SI (lung)” value in the test with HTB-54 cells [6] was 1.5.
`CC(=O)Oc1ccccc1C(=O)O` [ASA]: the IC50 in the test on HT-29 cells [7], in the test on HTB-54 cells [8] and in the test on MCF-7 cells [9] was greater than 100 µM each time.
Take `COc1ccc2cc([C@H](C)C(=O)O)ccc2c1` [Naproxen, (2S)-2-(6-methoxynaphtalen-2-yl) propanoic acid]: the IC50 in the test on HT-29 cells [7], in the test on HTB-54 cells [8] and with MCF-7 cells [9] was greater than 100 µM throughout.
With `O=C1[O][Pt]2([NH][C@@H]3CCCC[C@H]3[NH]2)[O]C1=O` [oxaliplatin], the GI50 in test [1] is 2.89 µM.
Regarding selenepezil, the “fold lower IC50 than compound 14a” value in the test with AChE [10] came out at 9 fold. In the test on AChE [11], the IC50 is 0.097 µM.
Take `O=c1[nH]cc(F)c(=O)[nH]1` [5-fluorouracil]: in [1], the GI50 is 57.5 µM.
As to `O=c1c2ccccc2[se]n1-c1ccccc1` [Ebselen, ebselen], in the test on AChE [10], the “fold higher IC50 than compound 14a” value came out at 32 fold. The IC50 in the test on AChE [11] was 29 µM.
